For orientation: Ki means a measure of affinity in units of concentration, obtained from inhibition or displacement. A high value points to weaker binding.

The target of assay [1] is T1, human Adenosine A2a receptor (Homo sapiens, UniProt P29274).
T1 construct: expressed in transfected cells; host or cells: CHO cell membranes
Nature of the assay: Adenosine receptor TR-FRET binding assay (CA200645 displacement), A2a. The note with it: 100 nM CA200645, CHO cell membranes, 2 hours at room temperature. Background: Time-resolved FRET reads energy transfer from a long-lived donor to a nearby acceptor.

The target in assay [2] is T2, human Adenosine A1 receptor (Homo sapiens, UniProt P30542).
T2 sequence (P30542 1-326): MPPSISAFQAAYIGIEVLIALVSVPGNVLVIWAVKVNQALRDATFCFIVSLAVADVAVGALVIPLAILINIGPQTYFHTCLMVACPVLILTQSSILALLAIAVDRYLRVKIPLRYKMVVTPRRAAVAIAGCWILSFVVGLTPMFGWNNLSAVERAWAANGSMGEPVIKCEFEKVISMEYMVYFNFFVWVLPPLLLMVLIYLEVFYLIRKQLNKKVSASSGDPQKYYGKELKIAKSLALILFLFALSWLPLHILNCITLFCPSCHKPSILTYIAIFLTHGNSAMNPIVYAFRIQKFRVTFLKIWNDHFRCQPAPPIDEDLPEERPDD
Nature of the assay: Adenosine receptor TR-FRET binding assay (CA200645 displacement), A1.

Assay [3] addresses T3, human Adenosine A3 receptor (Homo sapiens, UniProt P0DMS8).
T3 sequence (P0DMS8 1-318): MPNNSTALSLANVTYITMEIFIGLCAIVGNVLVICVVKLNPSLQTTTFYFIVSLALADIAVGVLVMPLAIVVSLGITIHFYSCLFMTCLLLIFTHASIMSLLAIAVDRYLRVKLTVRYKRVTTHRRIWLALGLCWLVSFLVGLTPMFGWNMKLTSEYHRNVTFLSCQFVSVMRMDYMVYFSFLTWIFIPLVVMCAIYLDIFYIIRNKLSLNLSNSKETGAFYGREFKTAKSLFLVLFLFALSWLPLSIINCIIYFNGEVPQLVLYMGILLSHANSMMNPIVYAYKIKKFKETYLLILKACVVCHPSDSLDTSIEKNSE
Nature of the assay: Adenosine receptor TR-FRET binding assay (CA200645 displacement), A3.

For assay [4], the target named is T4, human Adenosine A2b receptor (Homo sapiens, UniProt P29275).
T4 construct: expressed in transfected cells; host or cells: CHO cell membranes
T4 sequence (P29275 1-332): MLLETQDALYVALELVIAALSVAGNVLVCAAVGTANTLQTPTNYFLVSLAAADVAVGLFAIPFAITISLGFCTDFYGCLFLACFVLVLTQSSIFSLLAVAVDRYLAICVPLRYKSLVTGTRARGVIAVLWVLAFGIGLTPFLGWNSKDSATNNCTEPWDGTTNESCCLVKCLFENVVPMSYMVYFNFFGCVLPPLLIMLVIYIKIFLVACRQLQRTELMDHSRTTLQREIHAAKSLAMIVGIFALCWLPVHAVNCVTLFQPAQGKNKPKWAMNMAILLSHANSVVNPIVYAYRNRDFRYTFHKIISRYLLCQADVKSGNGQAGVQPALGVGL
Nature of the assay: Adenosine receptor TR-FRET binding assay (CA200645 displacement), A2b. The note with it: 30 nM CA200645, CHO cell membranes, 2 hours at room temperature.

Structures are written as SMILES. Structures can show the parent of a compound that is named as a salt. Some results are limits rather than exact numbers.

T1 sequence (P29274 whole entry): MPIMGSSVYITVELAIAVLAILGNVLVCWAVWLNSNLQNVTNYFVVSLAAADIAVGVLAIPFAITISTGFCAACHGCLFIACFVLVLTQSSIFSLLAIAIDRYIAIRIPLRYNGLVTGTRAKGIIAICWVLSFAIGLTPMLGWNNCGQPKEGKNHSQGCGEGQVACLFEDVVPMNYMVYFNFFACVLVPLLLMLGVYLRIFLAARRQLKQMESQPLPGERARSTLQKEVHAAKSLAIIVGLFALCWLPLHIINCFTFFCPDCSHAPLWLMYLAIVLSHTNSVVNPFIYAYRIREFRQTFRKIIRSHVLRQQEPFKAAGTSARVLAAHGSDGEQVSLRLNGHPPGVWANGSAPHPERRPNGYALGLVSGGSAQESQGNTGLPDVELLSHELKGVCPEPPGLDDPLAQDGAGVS

Take `CCn1nccc1-c1c(-c2cccc(C#N)c2)nn2ccc(N3CCN(S(C)(=O)=O)CC3)nc12` [Example 33.4]: the Ki in assay [1] is 0.0486 µM; in assay [2] it was 0.254 µM; in assay [3] it was > 1 µM; in assay [4], 0.12 µM.
For `CCn1nccc1-c1c(-c2cccc(C#N)c2)nn2ccc(NCc3nnc[nH]3)nc12` [Example 33.5] the same measures were 0.0919 µM, 0.124 µM, > 1 µM and 0.017 µM.
The like results for `CCn1nccc1-c1c(-c2cccc(C#N)c2)nn2ccc(N3CCNCC3)nc12` [Example 33.6] were, in that order, 0.134 µM, 0.898 µM, > 1 µM and 0.061 µM.
For the compound `CCn1nccc1-c1c(-c2cccc(C#N)c2)nn2ccc(N3CCS(=N)(=O)CC3)nc12` [Example 33.7], the Ki in assay [1] was 0.44 µM; in assay [2], 1.8 µM; in assay [3], > 1 µM; in assay [4], 0.416 µM.
As to `CC(C)(C)OC(=O)N1CCC[C@H]1CNc1ccn2nc(-c3ccco3)c(C#N)c2n1` [Example 37.4], the inhibition constant Ki in assay [1] stood at 0.0298 µM; in assay [2], 0.038 µM; in assay [3] it was 0.771 µM; in assay [4] it was 1.75 µM.
The like results for `CC(C)(C)OC(=O)N1CCO[C@H](CNc2ccn3nc(-c4ccco4)c(C#N)c3n2)C1` [Example 37.5] were, in that order, 0.0332 µM, 0.133 µM, 1.74 µM and 1.1 µM.
Take `N#Cc1c(-c2ccco2)nn2ccc(NCC3CCN(Cc4ccccc4)CC3)nc12` [Example 37.9]: the Ki is 0.0695 µM in assay [1], 0.398 µM in assay [2], > 1 µM in assay [3] and 0.036 µM in assay [4].
In the case of `C[C@@H]1CN(c2ccn3nc(-c4ccco4)c(C#N)c3n2)CCN1C(=O)OC(C)(C)C` [Example 37.10, tert-butyl (2R)-4-[3-cyano-2-(2-furyl)pyrazolo[1,5-a]pyrimidin-5-yl]-2-methyl-piperazine-1-carboxylate], the inhibitory constant (Ki) in assay [1] worked out at 0.076 µM; in assay [2] it was 1.76 µM; in assay [3] it was 2.88 µM; in assay [4] it was 5.04 µM.
As to `N#Cc1c(-c2ccco2)nn2ccc(NCCN3CCN(Cc4ccccc4)CC3)nc12` [Example 37.12], the inhibition constant (Ki) in assay [1] came to 0.31 µM; in assay [2], 0.319 µM; in assay [3] it was 0.923 µM; in assay [4] it was 1.32 µM.
The like results for `Cc1cccnc1CNc1ccn2nc(-c3ccco3)c(C(N)=O)c2n1` [Example 38, 2-(2-Furyl)-5-[(3-methyl-2-pyridyl)methylamino]pyrazolo[1,5-a]pyrimidine-3-carboxamide] were, in that order, 0.0105 µM, 0.158 µM, 1.01 µM and 0.971 µM.
The like results for `CC(C)(C)OC(=O)N1CC=C(c2ccn3nc(-c4ccco4)c(C#N)c3n2)CC1` [Example 40, tert-butyl 4-[3-cyano-2-(2-furyl)pyrazolo[1,5-a]pyrimidin-5-yl]-3,6-dihydro-2H-pyridine-1-carboxylate] were, in that order, 0.0936 µM, 1.95 µM, 1.77 µM and 5.5 µM.
The like results for `N#Cc1c(-c2ccco2)nn2ccc(N3CCNCC3)nc12` [Example 41, 2-(2-Furyl)-5-piperazin-1-yl-pyrazolo[1,5-a]pyrimidine-3-carbonitrile] were, in that order, 0.237 µM, 1.57 µM, 5.14 µM and 2.23 µM.
In the case of `N#Cc1c(-c2ccco2)nn2ccc(NC[C@@H]3CNCCO3)nc12` [Example 42, 2-(2-Furyl)-5-[[(2S)-morpholin-2-yl]methylamino]pyrazolo[1,5-a]pyrimidine-3-carbonitrile hydrochloride], the Ki in assay [1] was 0.345 µM; in assay [2] it was 0.313 µM; in assay [3], > 1 µM; in assay [4] it was 3.06 µM.
For `N#Cc1c(-c2ccco2)nn2ccc(NC[C@H]3CNCCO3)nc12` [Example 42.1, 2-(2-Furyl)-5-[[(2R)-morpholin-2-yl]methylamino]pyrazolo[1,5-a]pyrimidine-3-carbonitrile hydrochloride] the same measures were 0.41 µM, 0.68 µM, > 1 µM and 4.45 µM.
For `N#Cc1c(-c2ccco2)nn2ccc(N3CCN(Cc4ccccc4)CC3)nc12` [Example 43, 5-(4-Benzylpiperazin-1-yl)-2-(2-furyl)pyrazolo[1,5-a]pyrimidine-3-carbonitrile] the same measures were 0.0164 µM, 0.278 µM, > 1 µM and 1.86 µM.
In the case of `N#Cc1c(-c2ccco2)nn2ccc(N)nc12` [Example 49, 5-Amino-2-(2-furyl)pyrazolo[1,5-a]pyrimidine-3-carbonitrile], the Ki in assay [1] came out at 0.147 µM; in assay [2], 0.172 µM; in assay [3], 3.96 µM; in assay [4] it was 2.22 µM.
For `Cn1nccc1-c1c(-c2ccco2)nn2ccc(NCc3ccccc3)nc12` [Example 53.1, N-benzyl-2-(2-furyl)-3-(2-methylpyrazol-3-yl)pyrazolo[1,5-a]pyrimidin-5-amine] the same measures were 0.0486 µM, 0.034 µM, 0.174 µM and 0.129 µM.
For `N#Cc1c(-c2ccco2)nn2ccc(NCCCO)nc12` [Example 55.1, 2-(2-Furyl)-5-(3-hydroxypropylamino)pyrazolo[1,5-a]pyrimidine-3-carbonitrile], the inhibition constant (Ki) in assay [1] stood at 0.103 µM; in assay [2], 0.355 µM; in assay [3] it was 8.46 µM; in assay [4] it was 1.74 µM.
In the case of `N#Cc1c(-c2ccco2)nn2ccc(NCCO)nc12` [Example 55.2, 2-(2-furyl)-5-(2-hydroxyethylamino)pyrazolo[1,5-a]pyrimidine-3-carbonitrile], the inhibition constant (Ki) in assay [1] amounted to 0.244 µM; in assay [2], 0.284 µM; in assay [3] it was 4.18 µM; in assay [4], 1.7 µM.
For `N#Cc1c(-c2ccco2)nn2ccc(NC[C@H]3CCCNC3)nc12` [Example 56, 2-(2-Furyl)-5-(3-piperidylmethylamino)pyrazolo[1,5-a]pyrimidine-3-carbonitrile hydrochloride] the same measures were 0.141 µM, 0.521 µM, > 1 µM and 2.7 µM.
For `N#Cc1c(-c2ncco2)nn2ccc(NCc3ccccc3)nc12` [Example 57, 5-(Benzylamino)-2-oxazol-2-yl-pyrazolo[1,5-a]pyrimidine-3-carbonitrile], the Ki in assay [1] turned out to be 0.0247 µM; in assay [2], 0.236 µM; in assay [3], 1.87 µM; in assay [4], 1.49 µM.
For `Cc1cccnc1CN1CCN(c2ccn3nc(-c4cccc(F)c4)c(C#N)c3n2)CC1` [Example 60, 2-(3-Fluorophenyl)-5-[4-[(3-methyl-2-pyridyl)methyl]piperazin-1-yl]pyrazolo[1,5-a]pyrimidine-3-carbonitrile] the same measures were 0.0339 µM, 0.027 µM, 1 µM and 4.6 µM.
The like results for `c1coc(-c2cc3nc(NCc4nccs4)ccn3n2)c1` [Example 74, 2-(2-Furyl)-N-(thiazol-2-ylmethyl)pyrazolo[1,5-a]pyrimidin-5-amine] were, in that order, 0.587 µM, 0.649 µM, 0.16 µM and 6.24 µM.
For `OCc1c(-c2ccco2)nn2ccc(NCc3ccccc3)nc12` [Example 75, [5-(Benzylamino)-2-(2-furyl)pyrazolo[1,5-a]pyrimidin-3-yl]methanol] the same measures were 0.153 µM, 1.14 µM, 1.74 µM and 1.46 µM.
As to `Nc1ccn2nc(-c3ccco3)c(-c3ccncc3)c2n1` [Example 79, 2-(2-Furyl)-3-(4-pyridyl)pyrazolo[1,5-a]pyrimidin-5-amine], the inhibition constant (Ki) in assay [1] is 0.146 µM; in assay [2], 0.014 µM; in assay [3], 2.08 µM; in assay [4], 0.034 µM.

(Values after patent US20230203041A1, “ANTAGONISTS OF THE ADENOSINE A2A RECEPTOR” (AdoRx Therapeutics Limited, priority 2020, published 2023).)
